Holding throughout (format): cell-based
The target of experiment [1] is T1, pERK1/2 (Thr202/Tyr204), NCI-1H441 (KRAS G12V) (Homo sapiens, UniProt P01116, G12V).
T1 construct: pERK1/2 HTRF read-out
The experiment in a line: Assay of intracellular pERK1/2 (Thr202/Tyr204) phosphorylation in NCI-H441 cells (KRAS G12V). The note with it: pERK1/2, 2 days, read-out: NCI-H441 (KRAS G12V) IC50. The essentials:
(§1)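 HTRF detection of Thr202/Tyr204-phosphorylated ERK1/2 (665/615 nm ratio) in lysates from cells treated 2 days with serially 3-fold diluted compound.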

The target in experiment [2] is T2, pERK1/2 (Thr202/Tyr204), PANC-1 (KRAS G121D) (Homo sapiens, UniProt P01116, G12D).
T2 construct: pERK1/2 HTRF read-out
T2 sequence (P01116 1-188 isoform P01116-2 G12D): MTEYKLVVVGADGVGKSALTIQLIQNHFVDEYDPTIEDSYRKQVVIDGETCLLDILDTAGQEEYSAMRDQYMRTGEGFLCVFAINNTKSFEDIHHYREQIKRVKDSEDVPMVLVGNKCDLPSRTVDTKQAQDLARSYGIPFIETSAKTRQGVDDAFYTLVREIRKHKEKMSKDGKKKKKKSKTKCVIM
The experiment in a line: Assay of intracellular pERK1/2 (Thr202/Tyr204) phosphorylation in PANC-1 cells (KRAS G12D). The note with it: pERK1/2, 2 days, read-out: PANC-1 (KRAS G12D) IC50. An outline of the steps:
as §1

The target of experiment [3] is T3, pERK1/2 (Thr202/Tyr204), NCI-1H358 (KRAS G12C) (Homo sapiens, UniProt P01116, G12C).
T3 construct: pERK1/2 HTRF read-out
T3 sequence (P01116 1-188 isoform P01116-2 G12C): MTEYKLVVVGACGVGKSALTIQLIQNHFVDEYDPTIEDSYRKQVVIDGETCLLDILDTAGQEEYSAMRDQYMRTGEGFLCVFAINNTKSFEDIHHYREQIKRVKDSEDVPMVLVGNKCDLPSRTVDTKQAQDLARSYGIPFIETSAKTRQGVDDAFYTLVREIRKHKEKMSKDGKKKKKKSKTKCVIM
In words: Assay of intracellular pERK1/2 (Thr202/Tyr204) phosphorylation in NCI-H358 cells (KRAS G12C). The note with it: pERK1/2, 2 days, read-out: NCI-H358 (KRAS G12C) IC50. An outline of the steps:
as §1

For 16 compounds, IC50 results are on record in patent US20260356851A1, “TRICYCLIC COMPOUNDS AND USES THEREOF” (HUTCHMED LIMITED, priority 2023, published 2026).

As usually defined, the IC50 is the midpoint of a concentration-inhibition curve.

T1 sequence (P01116 1-188 isoform P01116-2 G12V): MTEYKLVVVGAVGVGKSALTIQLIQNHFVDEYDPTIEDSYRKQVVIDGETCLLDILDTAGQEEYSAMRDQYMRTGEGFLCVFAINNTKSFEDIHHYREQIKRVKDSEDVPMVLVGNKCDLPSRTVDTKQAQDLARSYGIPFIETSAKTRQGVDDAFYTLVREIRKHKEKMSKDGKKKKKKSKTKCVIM

Consider `Cc1cc2[nH]ncc2c(-c2nc3c4c(nc(OC[C@@]56CCCN5C[C@H](F)C6)nc4c2F)N(C(C)c2cccnc2N)[C@H]2CCOC[C@@H]2O3)c1C(F)(F)F` (stereo partly drawn) [Compound 388], for which the concentration for half-maximal inhibition (IC50) in experiment [1], in experiment [2] and in experiment [3] was more than 100 nM throughout.

For `Cc1cc2[nH]ncc2c(-c2nc3c4c(nc(OC[C@@]56CCCN5C[C@H](F)C6)nc4c2F)N(C(C)c2cccnc2N)[C@H]2CCC[C@H]2O3)c1C(F)(F)F` (stereo partly drawn) [Compound 389], the values for the IC50 in experiment [1], in experiment [2] and in experiment [3] were more than 100 nM, more than 100 nM and 60 nM, respectively.

Consider `Cc1cc2[nH]ncc2c(-c2nc3c4c(nc(OC[C@@]56CCCN5C[C@H](F)C6)nc4c2F)N([C@H](C)c2cccnc2N)[C@@H](C2CC2)CO3)c1C(F)(F)F` [Compound 390], for which the IC50 in experiment [1] is 31 nM; in experiment [2], more than 100 nM; in experiment [3], 11 nM.

As to `Cc1cc2[nH]ncc2c(-c2nc3c4c(nc(OC[C@@]56CCCN5C[C@H](F)C6)nc4c2F)N([C@@H](C)c2cccnc2N)[C@@H](C2CC2)CO3)c1C(F)(F)F` [Compound 391], the IC50 in experiment [1], in experiment [2] and in experiment [3] was more than 100 nM throughout.

In the case of `Cc1cc2[nH]ncc2c(-c2nc3c4c(nc(OC[C@@]56CCCN5C[C@H](F)C6)nc4c2F)N(C(C)c2cccnc2N)[C@@H]2COCC[C@H]2O3)c1C(F)(F)F` (stereo partly drawn) [Compound 392], the IC50 in experiment [1], in experiment [2] and in experiment [3] was more than 100 nM in each case.

In the case of `Cc1cc2[nH]ncc2c(-c2nc3c4c(nc(OC[C@@]56CCCN5C[C@H](F)C6)nc4c2F)N(C(C)c2cccnc2N)[C@H]2CCC[C@@H]2O3)c1C(F)(F)F` (stereo partly drawn) [Compound 393], the IC50 in experiment [1], in experiment [2] and in experiment [3] was more than 100 nM throughout.

As to `Cc1c(C(F)(F)F)c(-c2nc3c4c(nc(OCC5(CN(C)CCO)CC5)nc4c2F)N(C(C)c2cccnc2N)[C@@H](C)CO3)c2cn[nH]c2c1F` (stereo partly drawn) [Compound 394, (*)2-(((1-((((9S)-10-(1-(2-aminopyridin-3-yl)ethyl)-4-fluoro-5-(7-fluoro-6-methyl-5-(trifluoromethyl)-1H-indazol-4-yl)-9-methyl-9,10-dihydro-8H-7-oxa-1,3,6,10-tetraazacyclohepta[de]naphthalen-2-yl)oxy)methyl)cyclopropyl)methyl)(methyl)amino)ethan-1-ol], the values for the IC50 in experiment [1], in experiment [2] and in experiment [3] were 2 nM, 36 nM and 1 nM, respectively.

Regarding `Cc1c(C(F)(F)F)c(-c2nc3c4c(nc(OCC5(CN(C)C6CC6)CC5)nc4c2F)N(C(C)c2cccnc2N)[C@@H](C)CO3)c2cn[nH]c2c1F` (stereo partly drawn) [Compound 395], the IC50 in experiment [1] turned out to be 4 nM; in experiment [2] it was 21 nM; in experiment [3], 1 nM.

For `Cc1c(C(F)(F)F)c(-c2nc3c4c(nc(OCC5(CN(C)C)CC5)nc4c2F)N(C(C)c2cccnc2N)[C@@H](C)CO3)c2cn[nH]c2c1F` (stereo partly drawn) [Compound 396], the figures for the IC50 in experiment [1], in experiment [2] and in experiment [3] were 1 nM, 6 nM and less than 0.457 nM, respectively.

On to `CCc1c(F)ccc2cc(O)cc(-c3nc4c5c(nc(OCC6(CN(C)C7CC7)CC6)nc5c3F)N(C(C)c3cccnc3N)[C@@H](C)CO4)c12` (stereo partly drawn) [Compound 397], for which the IC50 in experiment [1] was 0.8 nM; in experiment [2], 0.7 nM; in experiment [3], less than 0.457 nM.

Consider `CC(c1cccnc1N)N1c2nc(OC[C@@]34CCCN3C[C@H](F)C4)nc3c(F)c(-c4c5ccccc5cc5[nH]ncc45)nc(c23)O[C@H]2CCC[C@@H]21` (stereo partly drawn) [Compound 398], for which the IC50 in experiment [1] amounted to 472 nM; in experiment [2], 264 nM; in experiment [3] it was 212 nM.

As for `C[C@H](c1cccnc1N)N1c2nc(OC[C@@]34CCCN3C[C@H](F)C4)nc3c(F)c(-c4c5ccccc5cc5[nH]ncc45)nc(c23)O[C@@H]2CCC[C@@H]21` [Compound 399], the IC50 in experiment [1] amounted to 57 nM; in experiment [2], 403 nM; in experiment [3] it was 65 nM.

Take `C[C@@H](c1cccnc1N)N1c2nc(OC[C@@]34CCCN3C[C@H](F)C4)nc3c(F)c(-c4c5ccccc5cc5[nH]ncc45)nc(c23)O[C@@H]2CCC[C@@H]21` [Compound 400]: the results for the IC50 in experiment [1], in experiment [2] and in experiment [3] were more than 1000 nM, 831 nM and 676 nM, respectively.

Regarding `Cc1n[nH]c2cc3ccccc3c(-c3nc4c5c(nc(OC[C@@]67CCCN6C[C@H](F)C7)nc5c3F)N(C(C)c3cccnc3N)[C@@H](C)CO4)c12` (stereo partly drawn) [Compound 401], the IC50 stood at 0.4 nM in experiment [1], 0.3 nM in experiment [2] and 0.3 nM in experiment [3].

Regarding `Cc1n[nH]c2cc3ccccc3c(-c3cc4nc(OC[C@@]56CCCN5C[C@H](F)C6)nc5c4c(n3)OC[C@H](C)N5C(C)c3cccnc3N)c12` (stereo partly drawn) [Compound 402], the IC50 in experiment [1] was 0.6 nM; in experiment [2], 0.4 nM; in experiment [3], 0.4 nM.

In the case of `CC(c1cccnc1N)N1c2nc(OC[C@@]34CCCN3C[C@H](F)C4)nc3cc(-c4c5ccccc5cc5[nH]nc(C6CC6)c45)nc(c23)OC[C@@H]1C` (stereo partly drawn) [Compound 403], the figures for the IC50 in experiment [1], in experiment [2] and in experiment [3] were 308 nM, 997 nM and 112 nM, respectively.
